Where two headings read alike, the source gives them in different places.
How the values were obtained:
Type in all cases: cell-based
CaV3.2 = molecular target: T1, CaV3.2 (Homo sapiens, UniProt O95180); test: High-throughput CaV3.2/Kir2.3 T-type FLIPR fluorescent assay; conditions: Fluo-4 FLIPR, closed or inactivated state not stated
T1 construct: expressed in transfected cells; host or cells: unnamed doxycycline-inducible cell line
In short: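 Doxycycline-induced cells loaded with Fluo-4, preincubated 20 min at 29°C with compound in 2 mM KCl (closed-state) or 7.6 mM KCl (inactivated-state) buffer, pH 7.4. Calcium entry triggered by 12 mM or 14.5 mM KCl respectively; fluorescence read 3 min by FLIPR, IC50 from logistic fit.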

CaV3.1 = molecular target: T2, CaV3.1 (Homo sapiens, UniProt O43497); test: High-throughput CaV3.1 T-type FLIPR fluorescent assay; conditions: Fluo-4 FLIPR
T2 construct: expressed in transfected cells; host or cells: unnamed doxycycline-inducible cell line
Procedure: Cells were plated in 384-well, clear-bottom, black-walled, poly-D-lysine coated plates (Becton Dickinson, Franklin Lake, N.J.) 2 days prior to use in the FLIPR assay. 100 μL of cells (2.0×10^6 cell/mL) containing doxycyline (Sigma-Aldrich, 1.5 μg/mL; to induce channel expression) were added to each well using a Multidrop (Thermo Scientific, Waltham, Mass.) and were maintained in 5% CO2 incubator at 37° C. On the morning of the assay, cells were transferred to a 5% CO2 incubator at 29° C.
Cells were washed with a wash buffer containing (in mM): 118 NaCl, 18.4 HEPES, 11.7 D-glucose, 0.05 CaCl2, 0.5 MgSO4, 1 KCl, and 1.2 KH2PO4, with the pH adjusted to 7.2 with NaOH. 4.4 μM of the fluorescent indicator dye, Fluo-4 (Invitrogen), prepared in pluronic acid
(Sigma-Aldrich), was loaded into the wells and incubated for 45 minutes at 29° C. in 5% CO2. Cells were then rinsed with the following low Ca^2+ buffer (in mM): 0.34 Na2HPO4, 4.2 NaHCO3, 0.44 KH2PO4, 0.41 MgSO4, 0.49 MgCl2-6H2O, 20 HEPES, 5.5 D-Glucose, 137 NaCl, 5.3 KCl, and 0.001 CaCl2, with 0.1% BSA and the pH adjusted to 7.2 with NaOH. Concentration-dependent response curves were generated from 5 mM stock solutions prepared in DMSO (Sigma-Aldrich) and diluted in the buffer containing low Ca^2+ and incubated for 20 minutes at 29° C. in 5% CO2. Calcium entry was evoked with an addition of (in mM): 0.34 Na2HPO4, 4.2 NaHCO3, 0.44 KH2PO4, 0.41 MgSO4, 0.49 MgCl2-6H2O, 20 HEPES, 5.5 D-Glucose, 137 NaCl, 5.3 KCl, and 6 CaCl2, with 0.1% BSA and the pH adjusted to 7.2 with NaOH. A change in the Fluo-4 fluorescence signal was assessed using FLIPR^TETRA™ instrument (Molecular Devices, Sunnyvale, Calif.) for 3 minutes following the elevation of extracellular KCl using an illumination wavelength of 470-495 nm with emissions recorded at 515-575 nm.
Concentration-dependent response curves were obtained by comparing the fluorescence signal in the presence of compound and fitted with a logistic function (1) to obtain the concentration that inhibited 50% (IC50) of the RLU signal using OriginPro v.7.5 software (OriginLab, Northampton, Mass.).
To assess the quality of the FLIPR assays the Z-factor (2) was used to quantify the suitability of the assay conditions using the following equation: […]
Data are expressed as mean and standard deviation (SD).

CaV2.2 = molecular target: T3, CaV2.2 (Homo sapiens, UniProt Q00975); test: High-throughput CaV2.2/Kir2.3 FLIPR fluorescent assay; conditions: Fluo-4 FLIPR, closed or inactivated state not stated, read-out: FLIPR data CaV2.2
T3 construct: expressed in transfected cells; host or cells: unnamed doxycycline-inducible cell line
In short: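 IC50 was derived by logistic fitting of the FLIPR Fluo-4 signal recorded over 3 min after a 130 mM KCl stimulus. Before stimulation, cells (channel expression induced with doxycycline, 29 °C on assay day) were kept in pH 7.4 buffer with 2 mM KCl for the closed-state format or 12.5 mM KCl for the inactivated-state format.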

T1 sequence (O95180 whole entry): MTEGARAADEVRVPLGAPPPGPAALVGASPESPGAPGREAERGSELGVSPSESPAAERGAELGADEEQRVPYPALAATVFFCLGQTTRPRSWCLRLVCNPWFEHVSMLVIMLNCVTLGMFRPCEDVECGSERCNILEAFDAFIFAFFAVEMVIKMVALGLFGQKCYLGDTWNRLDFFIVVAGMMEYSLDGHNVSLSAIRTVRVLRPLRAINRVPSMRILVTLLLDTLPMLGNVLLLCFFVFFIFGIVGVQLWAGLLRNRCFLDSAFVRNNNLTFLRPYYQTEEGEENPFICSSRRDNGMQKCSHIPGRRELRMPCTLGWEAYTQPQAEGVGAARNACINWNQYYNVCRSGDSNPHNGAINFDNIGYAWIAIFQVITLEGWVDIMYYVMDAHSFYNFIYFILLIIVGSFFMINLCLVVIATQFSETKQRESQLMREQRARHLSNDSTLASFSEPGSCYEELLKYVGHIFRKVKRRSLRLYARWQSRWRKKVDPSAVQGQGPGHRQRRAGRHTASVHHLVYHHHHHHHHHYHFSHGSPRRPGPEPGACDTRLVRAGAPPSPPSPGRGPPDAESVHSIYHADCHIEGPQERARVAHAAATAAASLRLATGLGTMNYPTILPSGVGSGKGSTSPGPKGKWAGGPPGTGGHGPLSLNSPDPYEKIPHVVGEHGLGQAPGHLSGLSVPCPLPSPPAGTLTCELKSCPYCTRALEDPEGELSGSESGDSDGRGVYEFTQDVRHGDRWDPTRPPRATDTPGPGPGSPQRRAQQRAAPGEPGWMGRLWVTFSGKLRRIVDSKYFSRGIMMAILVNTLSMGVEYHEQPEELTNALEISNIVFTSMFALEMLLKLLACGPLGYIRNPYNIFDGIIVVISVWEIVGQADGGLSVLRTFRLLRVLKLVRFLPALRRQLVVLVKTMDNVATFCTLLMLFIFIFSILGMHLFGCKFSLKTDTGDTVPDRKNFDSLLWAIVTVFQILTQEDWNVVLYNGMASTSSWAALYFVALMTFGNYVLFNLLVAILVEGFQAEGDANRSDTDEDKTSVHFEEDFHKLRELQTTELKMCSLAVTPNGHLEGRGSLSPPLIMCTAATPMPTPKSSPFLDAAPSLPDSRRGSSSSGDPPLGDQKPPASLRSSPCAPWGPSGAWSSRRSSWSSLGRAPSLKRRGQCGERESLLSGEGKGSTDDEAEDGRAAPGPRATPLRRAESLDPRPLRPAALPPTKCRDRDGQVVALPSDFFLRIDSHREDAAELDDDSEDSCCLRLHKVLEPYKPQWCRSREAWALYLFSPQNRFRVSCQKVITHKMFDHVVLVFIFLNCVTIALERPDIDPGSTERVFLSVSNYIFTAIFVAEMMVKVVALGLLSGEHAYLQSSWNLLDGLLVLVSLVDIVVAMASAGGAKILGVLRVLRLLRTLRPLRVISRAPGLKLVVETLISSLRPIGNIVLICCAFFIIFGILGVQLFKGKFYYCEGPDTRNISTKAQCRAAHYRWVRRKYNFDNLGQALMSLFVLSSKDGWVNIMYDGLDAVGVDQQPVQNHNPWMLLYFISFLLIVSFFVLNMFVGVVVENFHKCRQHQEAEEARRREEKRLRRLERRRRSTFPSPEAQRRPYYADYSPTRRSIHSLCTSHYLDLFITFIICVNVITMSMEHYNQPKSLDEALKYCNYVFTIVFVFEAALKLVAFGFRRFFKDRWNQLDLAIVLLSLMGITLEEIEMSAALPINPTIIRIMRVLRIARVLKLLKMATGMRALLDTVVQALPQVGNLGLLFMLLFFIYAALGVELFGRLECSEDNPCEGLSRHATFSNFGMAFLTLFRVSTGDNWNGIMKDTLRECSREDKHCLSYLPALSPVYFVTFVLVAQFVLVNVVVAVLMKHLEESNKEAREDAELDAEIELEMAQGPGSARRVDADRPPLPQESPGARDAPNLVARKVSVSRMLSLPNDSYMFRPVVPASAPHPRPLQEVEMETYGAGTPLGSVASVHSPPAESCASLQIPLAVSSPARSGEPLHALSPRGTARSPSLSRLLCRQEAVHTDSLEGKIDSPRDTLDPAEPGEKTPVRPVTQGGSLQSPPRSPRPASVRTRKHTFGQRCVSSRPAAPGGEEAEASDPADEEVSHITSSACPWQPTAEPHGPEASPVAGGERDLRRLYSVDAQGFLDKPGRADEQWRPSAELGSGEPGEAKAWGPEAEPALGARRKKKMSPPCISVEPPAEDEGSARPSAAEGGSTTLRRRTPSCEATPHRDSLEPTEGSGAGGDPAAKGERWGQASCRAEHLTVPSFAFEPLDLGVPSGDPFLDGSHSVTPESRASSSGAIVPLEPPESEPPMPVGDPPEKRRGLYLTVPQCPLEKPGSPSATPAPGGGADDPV
T2 sequence (O43497 whole entry): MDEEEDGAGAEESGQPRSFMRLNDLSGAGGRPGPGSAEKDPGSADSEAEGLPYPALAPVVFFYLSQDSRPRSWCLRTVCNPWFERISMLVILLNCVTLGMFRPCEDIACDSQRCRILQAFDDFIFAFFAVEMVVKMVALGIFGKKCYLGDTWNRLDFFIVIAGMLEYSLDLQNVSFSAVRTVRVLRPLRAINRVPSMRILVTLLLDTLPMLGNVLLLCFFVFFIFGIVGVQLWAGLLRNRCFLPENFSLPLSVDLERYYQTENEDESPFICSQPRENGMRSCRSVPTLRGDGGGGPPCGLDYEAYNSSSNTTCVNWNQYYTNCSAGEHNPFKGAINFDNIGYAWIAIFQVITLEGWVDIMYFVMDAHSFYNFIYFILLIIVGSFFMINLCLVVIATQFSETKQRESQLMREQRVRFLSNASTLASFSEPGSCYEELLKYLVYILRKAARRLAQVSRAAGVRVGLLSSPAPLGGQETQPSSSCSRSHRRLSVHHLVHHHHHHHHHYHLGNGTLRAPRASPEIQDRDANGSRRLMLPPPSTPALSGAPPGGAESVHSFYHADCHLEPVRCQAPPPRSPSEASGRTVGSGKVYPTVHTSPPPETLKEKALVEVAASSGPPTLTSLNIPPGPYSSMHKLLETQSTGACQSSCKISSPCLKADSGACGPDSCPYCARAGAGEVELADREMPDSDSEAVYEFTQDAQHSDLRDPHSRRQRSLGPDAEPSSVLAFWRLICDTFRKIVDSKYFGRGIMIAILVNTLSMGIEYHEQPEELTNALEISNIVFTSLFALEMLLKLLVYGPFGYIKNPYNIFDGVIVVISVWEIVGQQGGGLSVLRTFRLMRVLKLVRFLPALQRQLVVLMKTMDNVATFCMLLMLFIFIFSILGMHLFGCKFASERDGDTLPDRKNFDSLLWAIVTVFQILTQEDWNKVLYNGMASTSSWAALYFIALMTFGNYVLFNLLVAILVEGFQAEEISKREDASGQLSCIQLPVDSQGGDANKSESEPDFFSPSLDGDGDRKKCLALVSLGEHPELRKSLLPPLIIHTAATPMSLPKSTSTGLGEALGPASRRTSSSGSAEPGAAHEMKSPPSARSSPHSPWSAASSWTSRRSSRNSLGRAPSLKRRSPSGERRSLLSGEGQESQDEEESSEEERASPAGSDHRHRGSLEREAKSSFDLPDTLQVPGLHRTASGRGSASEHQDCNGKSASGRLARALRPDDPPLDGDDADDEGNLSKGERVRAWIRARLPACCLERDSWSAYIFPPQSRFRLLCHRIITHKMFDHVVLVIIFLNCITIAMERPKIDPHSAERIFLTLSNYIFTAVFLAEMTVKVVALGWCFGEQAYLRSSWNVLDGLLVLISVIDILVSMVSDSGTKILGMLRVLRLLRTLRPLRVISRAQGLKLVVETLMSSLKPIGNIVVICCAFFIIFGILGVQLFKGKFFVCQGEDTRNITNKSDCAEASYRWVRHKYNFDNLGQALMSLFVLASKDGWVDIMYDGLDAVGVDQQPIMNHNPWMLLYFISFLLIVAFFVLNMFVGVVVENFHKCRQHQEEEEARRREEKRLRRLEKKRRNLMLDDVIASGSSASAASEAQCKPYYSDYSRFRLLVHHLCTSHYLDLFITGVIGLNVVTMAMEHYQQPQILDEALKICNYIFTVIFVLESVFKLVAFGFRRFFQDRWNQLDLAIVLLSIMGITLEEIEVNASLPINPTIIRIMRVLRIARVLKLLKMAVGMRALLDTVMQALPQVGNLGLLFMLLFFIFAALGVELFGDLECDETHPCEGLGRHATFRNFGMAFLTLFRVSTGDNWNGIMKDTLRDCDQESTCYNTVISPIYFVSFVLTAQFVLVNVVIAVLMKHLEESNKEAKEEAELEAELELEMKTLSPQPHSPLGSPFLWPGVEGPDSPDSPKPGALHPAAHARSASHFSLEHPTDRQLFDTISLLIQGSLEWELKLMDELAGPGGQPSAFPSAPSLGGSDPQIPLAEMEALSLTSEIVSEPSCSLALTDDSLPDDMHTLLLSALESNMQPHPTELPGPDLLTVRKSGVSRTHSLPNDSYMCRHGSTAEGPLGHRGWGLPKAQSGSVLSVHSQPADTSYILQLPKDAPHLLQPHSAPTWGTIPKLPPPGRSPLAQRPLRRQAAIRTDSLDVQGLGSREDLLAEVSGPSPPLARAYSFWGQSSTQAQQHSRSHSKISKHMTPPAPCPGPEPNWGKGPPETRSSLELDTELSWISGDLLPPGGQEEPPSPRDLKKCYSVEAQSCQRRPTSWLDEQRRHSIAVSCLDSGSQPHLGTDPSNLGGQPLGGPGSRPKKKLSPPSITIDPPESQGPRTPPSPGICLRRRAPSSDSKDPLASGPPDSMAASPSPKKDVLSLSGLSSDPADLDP

Compound | IC50 (CaV3.2; Table 5) [µM] | IC50 (CaV3.1; Table 5) [µM] | IC50 (CaV2.2; Table 5) [µM] | IC50 (CaV3.2; Table 4) [µM] | IC50 (CaV3.1; Table 4) [µM] | IC50 (CaV2.2; Table 4) [µM]
CC(C)(C(=O)NCc1cccc(S(=O)(=O)c2cccc(C(F)(F)F)c2)c1)S(=O)(=O)c1cccc(C(F)(F)F)c1 [Compound 226, 2-methyl-2-((3-(trifluoromethyl)phenyl)sulfonyl)-N-(3-((3-(trifluoromethyl)phenyl)sulfonyl)benzyl)propanamide] | 1.2 | 1.41 | 0.11 | – | – | –
O=C(NCc1ccccc1S(=O)(=O)c1cccc(C(F)(F)F)c1)[C@@H]1C[C@@H](C2CCCCC2)CN1 [Compound 75, (2S,4S)-4-cyclohexyl-N-(2-((3-(trifluoromethyl)phenyl)sulfonyl)benzyl)pyrrolidine-2-carboxamide] | – | – | – | 1.59 | 5.47 | 1.06
CC(C)(C(=O)NCc1ccccc1S(=O)(=O)c1cccc(C(F)(F)F)c1)S(=O)(=O)c1cccc(C(F)(F)F)c1 [Compound 227, 2-methyl-2-((3-(trifluoromethyl)phenyl)sulfonyl)-N-(2-((3-(trifluoromethyl)phenyl)sulfonyl)benzyl)propanamide] | 0.35 | 0.63 | 0.4 | – | – | –
O=C(NCc1ccc(S(=O)(=O)c2cccc(C(F)(F)F)c2)cn1)c1cn2cc(C(F)(F)F)ccc2n1 [Compound 103, 6-(trifluoromethyl)-N-((5-((3-(trifluoromethyl)phenyl)sulfonyl)pyridin-2-yl)methyl)imidazo[1,2-a]pyridine-2-carboxamide] | – | – | – | 1.25 | 2.06 | 0.83
CC(C)(C(=O)NCc1ccc(S(=O)(=O)c2cccc(C(F)(F)F)c2)cc1)S(=O)(=O)c1cccc(C(F)(F)F)c1 [Compound 225, 2-methyl-2-((3-(trifluoromethyl)phenyl)sulfonyl)-N-(4-((3-(trifluoromethyl)phenyl)sulfonyl)benzyl)propanamide] | 0.63 | 1.41 | 0.1 | – | – | –
CC(C)(C(=O)N1CCN(c2cccc(C(F)(F)F)c2)CC1)S(=O)(=O)c1cccc(C(F)(F)F)c1 [Compound 132, 2-methyl-1-(4-(3-(trifluoromethyl)phenyl)piperazin-1-yl)-2-((3-(trifluoromethyl)phenyl)sulfonyl)propan-1-one] | 3.63 | 4.08 | 1.21 | – | – | –
O=C(NCc1ccc(S(=O)(=O)c2cccc(C(F)(F)F)c2)cc1)c1ccc(C(F)(F)F)cn1 [Compound 4, 5-(trifluoromethy)-N-(4-((3-(trifluoromethyl)phenyl)sulfonyl)benzyl)picolinamide] | – | – | – | 0.38 | 1.48 | 0.45
CS(=O)(=O)c1cc(C(F)(F)F)cnc1C(=O)NCc1ccccc1S(=O)(=O)c1cccc(C(F)(F)F)c1 [Compound 43, 3-(methylsulfonyl)-5-(trifluoromethyl)-N-(2-((3-(trifluoromethyl)phenyl)sulfonyl)benzyl)picolinamide] | – | – | – | 3.38 | 1.42 | 0.67
CC(C)(C(=O)NCc1ccc(S(=O)(=O)c2cccc(C(F)(F)F)c2)cn1)S(=O)(=O)c1cccc(C(F)(F)F)c1 [Compound 87, 2-methyl-2-((3-(trifluoromethyl)phenyl)sulfonyl)-N-((5-((3-(trifluoromethyl)phenyl)sulfonyl)pyridin-2-yl)methyl)propanamide] | – | – | – | 1.26 | 1.69 | 0.17
O=C(NCc1ccccc1S(=O)(=O)c1cccc(C(F)(F)F)c1)c1cc(F)cc(Cl)c1 [Compound 37, 3-chloro-5-fluoro-N-(2-((3-(trifluoromethyl)phenyl)sulfonyl)benzyl)benzamide] | – | – | – | 1.61 | 1.42 | 0.68
O=C(NCc1ccc(S(=O)(=O)c2cccc(C(F)(F)F)c2)cc1)c1ccnn1CC(F)(F)F [Compound 12, 1-(2,2,2-trifluoroethyl)-N-(4-((3-(trifluoromethyl)phenyl)sulfonyl)benzyl)-1H-pyrazole-5-carboxamide] | – | – | – | 0.59 | 2.29 | 0.63
COc1cc(C(=O)NCc2cccc(S(=O)(=O)c3cccc(C(F)(F)F)c3)c2)cc(Cl)n1 [Compound 30] | – | – | – | 0.51 | 1.11 | 0.31
CS(=O)(=O)c1nc(C(F)(F)F)ccc1C(=O)NCc1cccc(S(=O)(=O)c2cccc(C(F)(F)F)c2)c1 [Compound 21, 2-(methylsulfonyl)-6-(trifluoromethyl)-N-(3-((3-(trifluoromethyl)phenyl)sulfonyl)benzyl)nicotinamide] | – | – | – | 2.68 | 9.07 | 0.76
CC(C)S(=O)(=O)c1cc(C(F)(F)F)cnc1C(=O)NCc1ccccc1S(=O)(=O)c1cccc(C(F)(F)F)c1 [Compound 44, 3-(isopropylsulfonyl)-5-(trifluoromethyl)-N-(2-((3-(trifluoromethyl)phenyl)sulfonyl)benzyl)picolinamide] | – | – | – | 1.03 | 0.72 | 0.23
O=C1c2cc(C(F)(F)F)nn2CCN1Cc1ccccc1S(=O)(=O)c1cccc(C(F)(F)F)c1 [Compound 35, 2-(trifluoromethyl)-5-(2-((3-(trifluoromethyl)phenyl)sulfonyl)benzyl)-6,7-dihydropyrazolo[1,5-a]pyrazin-4(5H)-one] | – | – | – | 1.74 | 1.85 | 1.22
O=C(NCc1cccc(S(=O)(=O)c2cccc(C(F)(F)F)c2)c1)c1ccc(C(F)(F)F)nc1 [Compound 19, 6-(trifluoromethyl)-N-(3-((3-(trifluoromethyl)phenyl)sulfonyl)benzyl)nicotinamide] | – | – | – | 0.97 | 2.1 | 0.49
CC(C)(C(=O)Nc1ccc(Oc2ccc(F)c(C(F)(F)F)c2)nc1)S(=O)(=O)c1cccc(OC(F)(F)F)c1 [Compound 119, N-(6-(4-fluoro-3-(trifluoromethyl)phenoxy)pyridin-3-yl)-2-methyl-2-((3-(trifluoromethoxy)phenyl)sulfonyl)propanamide] | 4.31 | 5.8 | 0.2 | – | – | –
CC(C)S(=O)(=O)c1cc(C(F)(F)F)cnc1C(=O)NCc1ccc(S(=O)(=O)c2cccc(C(F)(F)F)c2)cc1 [Compound 33, 3-(isopropylsulfonyl)-5-(trifluoromethyl)-N-(4-((3-(trifluoromethyl)phenyl)sulfonyl)benzyl)picolinamide] | – | – | – | 1.01 | 0.92 | 0.1
CC(C)(C(=O)NCC(O)c1ccc(C(F)(F)F)cc1)S(=O)(=O)c1cccc(C(F)(F)F)c1 (stereo not drawn) [Compound 140, N-(2-hydroxy-2-(4-(trifluoromethyl)phenyl)ethyl)-2-methyl-2-((3-(trifluoromethyl)phenyl)sulfonyl)propanamide] | 5.09 | 8.22 | 0.41 | – | – | –
CS(=O)(=O)c1cc(C(F)(F)F)ccc1C(=O)NCc1cccc(S(=O)(=O)c2cccc(C(F)(F)F)c2)c1 [Compound 28, 2-(methylsulfonyl)-4-(trifluoromethyl)-N-(3-((3-(trifluoromethyl)phenyl)sulfonyl)benzyl)benzamide] | – | – | – | 0.73 | 1.51 | 0.19
Cn1nc(C(F)(F)F)cc1C(=O)NCc1ccc(S(=O)(=O)c2cccc(C(F)(F)F)c2)cc1 [Compound 7, 1-methyl-3-(trifluoromethyl)-N-(4-((3-(trifluoromethyl)phenyl)sulfonyl)benzyl)-1H-pyrazole-5-carboxamide] | – | – | – | 0.51 | 1.33 | 0.39
